Reference: patent US11260011B2, “Use of neohesperidin” (NATURAL MEDICINE INSTITUTE OF ZHEJIANG YANGSHENGTANG CO., …, priority 2011, dated 2022)
Where “and” joins values, the source holds several entries; their conditions need not be identical. Equal values may be shown once.

Key:
[1] = Effect of topical application of neohesperidin on skin microcirculation by Laser Doppler Flowmetery; type: in vivo, Oryctolagus cuniculus; parameters: key to Working time point: —: represents the time point at which P < 0.1 did not appear during the 24 h test when 2% solution was administered orally
Source text: The experimental method for promoting microcirculation: Male Oryctolagus cuniculus weighted 3.0-3.5 kg were used. After shaving the hair on the back of the Oryctolagus cuniculus, 10 points for testing blood flow were marked with a marker pen on the hairless skin of the rabbit, i.e. 5 points for each of the right side and the left side, and aorta was avoided when drawing the points. Before smearing the sample, the basic values of blood flow at the 10 points of rabbits of each experimental group were determined by Laser Doppler Flowmetery. […] 2% (w/v) solution was orally administrated by a similar method in a volume 100 times compared to the volume used in the group wherein the 2% (w/v) solution was administered by smearing. After administration, the blood flow value was determined every hour at the same point by Laser Doppler Flowmetery for 24 h, and the variation index of blood flow was calculated to evaluate the effect of neohesperidin on the back blood of rabbits, wherein a higher variation index of blood flow indicated a better effect of promoting microcirculation. The experimental results were statistically analyzed by SPSS11.5 software, and t-test was applied to the measured data to evaluate the experimental results. When P<0.1, the data may be regarded as statistically significant. In the results of Table 1, all the time points with P<0.1 in the 24-h test were listed.

[2] = topical application to human skin; cited from earlier work

Compound	improvement of skin microcirculation after topical administration to skin surface [2]	other results
COc1ccc([C@@H]2CC(=O)c3c(O)cc(O[C@@H]4O[C@H](CO)[C@@H](O)[C@H](O)[C@H]4O[C@@H]4O[C@@H](C)[C@H](O)[C@@H](O)[C@H]4O)cc3O2)cc1O [neohesperidin]		Working time point ([1]; 0.5% (w/v) solution, smearing on back skin, time points with P<0.1 in 24-h test): 6 h; Working time point ([1]; 1% (w/v) solution, smearing on back skin, time points with P<0.1 in 24-h test): 2 h and 3 h; Working time point ([1]; 2% (w/v) solution, orally, 24-h test): —; blood flow in skin microvessels as compared to the blank side ([1]; smearing backs of rabbits with different concentrations): significantly enhanced
C[C@@H]1CC[C@@]2(OC1)O[C@H]1C[C@H]3[C@@H]4CC=C5C[C@@H](O)C[C@@H](O)[C@]5(C)[C@H]4CC[C@]3(C)[C@H]1[C@@H]2C [ruscogenin]	cannot significantly improve skin microcirculation	
ginkgo flavone	cannot significantly improve skin microcirculation	
ginsenoside	cannot significantly improve skin microcirculation	
tanshinone	cannot significantly improve skin microcirculation	
β-aescin	cannot significantly improve skin microcirculation	
